{"source": "patent US12618095B2", "about": "“Medium for Bacillus cereus group detection” (SHIMADZU DIAGNOSTICS CORPORATION, priority 2020, dated 2026)", "assay_in_all_cases": "Test Example 10: agar medium with aztreonam or ceftazidime", "key": {"B. cereus": {"test_system": "B. cereus", "conditions": "22 hours"}, "E. amnigenus": {"test_system": "E. amnigenus", "conditions": "22 hours; for Number of colonies: ATCC33072"}, "E. coli": {"test_system": "E. coli", "format": "cell-based", "conditions": "22 hours; for Number of colonies: ATCC8739"}, "B. thuringiensis": {"test_system": "B. thuringiensis", "conditions": "NBRC101235, 22 hours"}, "[1]": {"conditions": "Ceftazidime 0.05 mg, 10^1 cfu/mL"}, "[2]": {"conditions": "Ceftazidime 0.05 mg, 10^2 cfu/mL"}, "[3]": {"conditions": "Ceftazidime 0.05 mg, 10^3 cfu/mL"}, "[4]": {"conditions": "Ceftazidime 0.05 mg, 10^4 cfu/mL"}, "[5]": {"conditions": "Ceftazidime 0.05 mg, 10^5 cfu/mL"}, "[6]": {"conditions": "Ceftazidime 0.5 mg, 10^1 cfu/mL"}, "[7]": {"conditions": "Ceftazidime 0.5 mg, 10^2 cfu/mL"}, "[8]": {"conditions": "Ceftazidime 0.5 mg, 10^3 cfu/mL"}, "[9]": {"conditions": "Ceftazidime 0.5 mg, 10^4 cfu/mL"}, "[10]": {"conditions": "Ceftazidime 0.5 mg, 10^5 cfu/mL"}}, "data": [{"smiles": "CC(C)(O/N=C(\\C(=O)N[C@@H]1C(=O)N2C(C(=O)[O-])=C(C[n+]3ccccc3)CS[C@H]12)c1csc(N)n1)C(=O)O", "note": "[ceftazidime]", "values": [{"measurement": "Number of colonies", "setting": "B. cereus; ATCC11778, Ceftazidime 0.05 mg, 10^1 cfu/mL", "value": 2}, {"measurement": "Number of colonies", "setting": "B. cereus; ATCC11778, Ceftazidime 0.05 mg, 10^2 cfu/mL", "value": 11}, {"measurement": "Number of colonies", "setting": "B. cereus; ATCC11778, Ceftazidime 0.05 mg, 10^3 cfu/mL", "value": "+"}, {"measurement": "Number of colonies", "setting": "B. cereus; ATCC11778, Ceftazidime 0.05 mg, 10^4 cfu/mL", "value": "+"}, {"measurement": "Number of colonies", "setting": "B. cereus; ATCC11778, Ceftazidime 0.05 mg, 10^5 cfu/mL", "value": "+"}, {"measurement": "Number of colonies", "setting": "B. cereus; ATCC11778, Ceftazidime 0.5 mg, 10^1 cfu/mL", "value": "−"}, {"measurement": "Number of colonies", "setting": "B. cereus; ATCC11778, Ceftazidime 0.5 mg, 10^2 cfu/mL", "value": 13}, {"measurement": "Number of colonies", "setting": "B. cereus; ATCC11778, Ceftazidime 0.5 mg, 10^3 cfu/mL", "value": "+"}, {"measurement": "Number of colonies", "setting": "B. cereus; ATCC11778, Ceftazidime 0.5 mg, 10^4 cfu/mL", "value": "+"}, {"measurement": "Number of colonies", "setting": "B. cereus; ATCC11778, Ceftazidime 0.5 mg, 10^5 cfu/mL", "value": "+"}, {"measurement": "Number of colonies", "setting": "B. cereus; ATCC11778, Ceftazidime 5 mg, 10^1 cfu/mL", "value": "−"}, {"measurement": "Number of colonies", "setting": "B. cereus; ATCC11778, Ceftazidime 5 mg, 10^2 cfu/mL", "value": 17}, {"measurement": "Number of colonies", "setting": "B. cereus; ATCC11778, Ceftazidime 5 mg, 10^3 cfu/mL", "value": "+"}, {"measurement": "Number of colonies", "setting": "B. cereus; ATCC11778, Ceftazidime 5 mg, 10^4 cfu/mL", "value": "+"}, {"measurement": "Number of colonies", "setting": "B. cereus; ATCC11778, Ceftazidime 5 mg, 10^5 cfu/mL", "value": "+"}, {"measurement": "Number of colonies", "setting": "B. cereus; ATCC19637, Ceftazidime 0.05 mg, 10^1 cfu/mL", "value": "−"}, {"measurement": "Number of colonies", "setting": "B. cereus; ATCC19637, Ceftazidime 0.05 mg, 10^2 cfu/mL", "value": 7}, {"measurement": "Number of colonies", "setting": "B. cereus; ATCC19637, Ceftazidime 0.05 mg, 10^3 cfu/mL", "value": "+"}, {"measurement": "Number of colonies", "setting": "B. cereus; ATCC19637, Ceftazidime 0.05 mg, 10^4 cfu/mL", "value": "+"}, {"measurement": "Number of colonies", "setting": "B. cereus; ATCC19637, Ceftazidime 0.05 mg, 10^5 cfu/mL", "value": "+"}, {"measurement": "Number of colonies", "setting": "B. cereus; ATCC19637, Ceftazidime 0.5 mg, 10^1 cfu/mL", "value": "−"}, {"measurement": "Number of colonies", "setting": "B. cereus; ATCC19637, Ceftazidime 0.5 mg, 10^2 cfu/mL", "value": 12}, {"measurement": "Number of colonies", "setting": "B. cereus; ATCC19637, Ceftazidime 0.5 mg, 10^3 cfu/mL", "value": "+"}, {"measurement": "Number of colonies", "setting": "B. cereus; ATCC19637, Ceftazidime 0.5 mg, 10^4 cfu/mL", "value": "+"}, {"measurement": "Number of colonies", "setting": "B. cereus; ATCC19637, Ceftazidime 0.5 mg, 10^5 cfu/mL", "value": "+"}, {"measurement": "Number of colonies", "setting": "B. cereus; ATCC19637, Ceftazidime 5 mg, 10^1 cfu/mL", "value": 3}, {"measurement": "Number of colonies", "setting": "B. cereus; ATCC19637, Ceftazidime 5 mg, 10^2 cfu/mL", "value": 5}, {"measurement": "Number of colonies", "setting": "B. cereus; ATCC19637, Ceftazidime 5 mg, 10^3 cfu/mL", "value": "+"}, {"measurement": "Number of colonies", "setting": "B. cereus; ATCC19637, Ceftazidime 5 mg, 10^4 cfu/mL", "value": "+"}, {"measurement": "Number of colonies", "setting": "B. cereus; ATCC19637, Ceftazidime 5 mg, 10^5 cfu/mL", "value": "+"}, {"measurement": "Number of colonies", "setting": "E. amnigenus; [1]", "value": "−"}, {"measurement": "Number of colonies", "setting": "E. amnigenus; [2]", "value": "−"}, {"measurement": "Number of colonies", "setting": "E. amnigenus; [3]", "value": 1}, {"measurement": "Number of colonies", "setting": "E. amnigenus; [4]", "value": 33}, {"measurement": "Number of colonies", "setting": "E. amnigenus; [5]", "value": "+"}, {"measurement": "Number of colonies", "setting": "E. amnigenus; [6]", "value": "−"}, {"measurement": "Number of colonies", "setting": "E. amnigenus; [7]", "value": "−"}, {"measurement": "Number of colonies", "setting": "E. amnigenus; [8]", "value": "−"}, {"measurement": "Number of colonies", "setting": "E. amnigenus; [9]", "value": "−"}, {"measurement": "Number of colonies", "setting": "E. amnigenus; [10]", "value": "−"}, {"measurement": "Number of colonies", "setting": "E. amnigenus; Ceftazidime 5 mg, 10^1 cfu/mL", "value": "−"}, {"measurement": "Number of colonies", "setting": "E. amnigenus; Ceftazidime 5 mg, 10^2 cfu/mL", "value": "−"}, {"measurement": "Number of colonies", "setting": "E. amnigenus; Ceftazidime 5 mg, 10^3 cfu/mL", "value": "−"}, {"measurement": "Number of colonies", "setting": "E. amnigenus; Ceftazidime 5 mg, 10^4 cfu/mL", "value": "−"}, {"measurement": "Number of colonies", "setting": "E. amnigenus; Ceftazidime 5 mg, 10^5 cfu/mL", "value": "−"}, {"measurement": "formation of a white colony", "setting": "E. amnigenus; added to TSA-BC, 30° C.", "value": "suppressed"}, {"measurement": "Number of colonies", "setting": "E. coli; [1]", "value": "−"}, {"measurement": "Number of colonies", "setting": "E. coli; [2]", "value": "−"}, {"measurement": "Number of colonies", "setting": "E. coli; [3]", "value": "−"}, {"measurement": "Number of colonies", "setting": "E. coli; [4]", "value": "−"}, {"measurement": "Number of colonies", "setting": "E. coli; [5]", "value": "−"}, {"measurement": "Number of colonies", "setting": "E. coli; [6]", "value": "−"}, {"measurement": "Number of colonies", "setting": "E. coli; [7]", "value": "−"}, {"measurement": "Number of colonies", "setting": "E. coli; [8]", "value": "−"}, {"measurement": "Number of colonies", "setting": "E. coli; [9]", "value": "−"}, {"measurement": "Number of colonies", "setting": "E. coli; [10]", "value": "−"}, {"measurement": "Number of colonies", "setting": "E. coli; Ceftazidime 5 mg, 10^1 cfu/mL", "value": "−"}, {"measurement": "Number of colonies", "setting": "E. coli; Ceftazidime 5 mg, 10^2 cfu/mL", "value": "−"}, {"measurement": "Number of colonies", "setting": "E. coli; Ceftazidime 5 mg, 10^3 cfu/mL", "value": "−"}, {"measurement": "Number of colonies", "setting": "E. coli; Ceftazidime 5 mg, 10^4 cfu/mL", "value": "−"}, {"measurement": "Number of colonies", "setting": "E. coli; Ceftazidime 5 mg, 10^5 cfu/mL", "value": "−"}, {"measurement": "formation of a white colony", "setting": "E. coli; added to TSA-BC, 30° C.", "value": "suppressed"}, {"measurement": "Number of colonies", "setting": "B. thuringiensis; [1]", "value": 5}, {"measurement": "Number of colonies", "setting": "B. thuringiensis; [2]", "value": 13}, {"measurement": "Number of colonies", "setting": "B. thuringiensis; [3]", "value": "+"}, {"measurement": "Number of colonies", "setting": "B. thuringiensis; [4]", "value": "+"}, {"measurement": "Number of colonies", "setting": "B. thuringiensis; [5]", "value": "+"}, {"measurement": "Number of colonies", "setting": "B. thuringiensis; [6]", "value": 3}, {"measurement": "Number of colonies", "setting": "B. thuringiensis; [7]", "value": 10}, {"measurement": "Number of colonies", "setting": "B. thuringiensis; [8]", "value": "+"}, {"measurement": "Number of colonies", "setting": "B. thuringiensis; [9]", "value": "+"}, {"measurement": "Number of colonies", "setting": "B. thuringiensis; [10]", "value": "+"}, {"measurement": "Number of colonies", "setting": "B. thuringiensis; Ceftazidime 5 mg, 10^1 cfu/mL", "value": 4}, {"measurement": "Number of colonies", "setting": "B. thuringiensis; Ceftazidime 5 mg, 10^2 cfu/mL", "value": 16}, {"measurement": "Number of colonies", "setting": "B. thuringiensis; Ceftazidime 5 mg, 10^3 cfu/mL", "value": "+"}, {"measurement": "Number of colonies", "setting": "B. thuringiensis; Ceftazidime 5 mg, 10^4 cfu/mL", "value": "+"}, {"measurement": "Number of colonies", "setting": "B. thuringiensis; Ceftazidime 5 mg, 10^5 cfu/mL", "value": "+"}]}]}
